ChEMBL document CHEMBL1201862, “PubChem BioAssay data set” (2004)
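Exposure lasted 48 hours, with cells grown in 96-well plates and compounds tested at five concentrations. GI50 marks 50% less growth.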 The source made the active and inactive calls. Cut-off read from the data, not from the text of the source: active = GI50 up to about 1.1 µM and inactive = higher.

Tests used:
Assay in all cases: NCI anticancer screen, dose series, 48 h
[1] = test system: HT-29
[2] = test system: LOX IMVI
[3] = test system: SNB-19
[4] = test system: MDA-MB-231
[5] = test system: SK-MEL-5
[6] = test system: RXF 393
[7] = test system: MOLT-4
[8] = test system: A549
[9] = test system: HOP-62
[10] = test system: SK-OV-3
[11] = test system: MDA-N
[12] = test system: SW-620
[13] = test system: DU-145
[14] = test system: ACHN
[15] = test system: COLO 205
[16] = test system: TK-10
[17] = test system: NCI-H23
[18] = test system: HCC 2998
[19] = test system: M14
[20] = test system: OVCAR-8
[21] = test system: SF-295
[22] = test system: IGROV-1
[23] = test system: UACC-62
[24] = test system: HCT-15
[25] = test system: T47D
[26] = test system: SF-268
[27] = test system: Malme-3M
[28] = test system: K562
[29] = test system: MCF7
[30] = test system: HOP-92
[31] = test system: CCRF-CEM
[32] = test system: OVCAR-4
[33] = test system: SR
[34] = test system: PC-3
[35] = test system: SNB-75
[36] = test system: EKVX
[37] = test system: SN12C
[38] = test system: CAKI-1
[39] = test system: HL-60
[40] = test system: NCI-H460
[41] = test system: NCI/ADR-RES
[42] = test system: SF-539
[43] = test system: RPMI-8226
[44] = test system: SK-MEL-28
[45] = test system: U-251
[46] = test system: MDA-MB-435
[47] = test system: OVCAR-3
[48] = test system: A498
[49] = test system: KM12
[50] = test system: UO-31
[51] = test system: UACC-257
[52] = test system: 786-0
[53] = test system: HCT-116
[54] = test system: NCI-H226
[55] = test system: OVCAR-5
[56] = test system: Hs-578T

CN(C)c1n/c(=N/Cc2ccccn2)ss1
GI50 [1]: > 10 µM (inactive) | GI50 [2]: 2.51 µM (inactive) | GI50 [3]: > 10 µM (inactive) | GI50 [4]: > 10 µM (inactive) | GI50 [5]: > 10 µM (inactive) | GI50 [6]: > 8.79 µM (inactive) | GI50 [7]: 1.78 µM (inactive) | GI50 [8]: > 10 µM (inactive) | GI50 [9]: > 10 µM (inactive) | GI50 [10]: > 10 µM (inactive) | GI50 [11]: > 10 µM (inactive) | GI50 [12]: > 6.4 µM (inactive) | GI50 [13]: > 10 µM (inactive) | GI50 [14]: > 10 µM (inactive) | GI50 [15]: > 10 µM (inactive) | GI50 [16]: > 10 µM (inactive) | GI50 [17]: > 10 µM (inactive) | GI50 [18]: > 10 µM (inactive) | GI50 [19]: > 8.89 µM (inactive) | GI50 [20]: > 5.3 µM (inactive) | GI50 [21]: > 10 µM (inactive) | GI50 [22]: > 10 µM (inactive) | GI50 [23]: > 10 µM (inactive) | GI50 [24]: 9.68 µM | GI50 [25]: > 10 µM (inactive) | GI50 [26]: > 10 µM (inactive) | GI50 [27]: > 4.61 µM (inactive) | GI50 [28]: 2.51 µM (inactive) | GI50 [29]: 0.409 µM (active) | GI50 [30]: > 10 µM (inactive) | GI50 [31]: 1.24 µM (inactive) | GI50 [32]: > 7.26 µM (inactive) | GI50 [33]: 1.93 µM (inactive) | GI50 [34]: > 10 µM (inactive) | GI50 [35]: > 10 µM (inactive) | GI50 [36]: > 10 µM (inactive) | GI50 [37]: 9.77 µM (inactive) | GI50 [38]: > 7.94 µM (inactive) | GI50 [39]: 2.18 µM (inactive) | GI50 [40]: > 10 µM (inactive) | GI50 [41]: > 10 µM (inactive) | GI50 [42]: > 10 µM (inactive) | GI50 [43]: 4.48 µM (inactive) | GI50 [44]: > 10 µM (inactive) | GI50 [45]: > 10 µM (inactive) | GI50 [46]: > 10 µM (inactive) | GI50 [47]: > 10 µM (inactive) | GI50 [48]: > 10 µM (inactive) | GI50 [49]: > 9.57 µM (inactive) | GI50 [50]: > 10 µM (inactive) | GI50 [51]: > 10 µM (inactive) | GI50 [52]: > 4.16 µM (inactive) | GI50 [53]: 7.98 µM (inactive) | GI50 [54]: > 10 µM (inactive) | GI50 [55]: 7.38 µM (inactive) | GI50 [56]: > 10 µM (inactive)
